Tests used:
USP7 = USP7 (Homo sapiens, UniProt Q93009); assay: USP7 activity assay, Ub-AMC substrate; type: biochemical; set-up: Full-length wild-type human USP7 and its catalytic mutant; His tag (pFastBac-HT vector) (N); made in house; host or cells: Spodoptera frugiperda Sf9 (or High Five) insect cells, baculovirus; settings: UbAMC substrate 300 nM, USP7 100 pM
Method: Bacmid DNA was prepared by an alkaline lysis procedure. The integrity of the bacmid minipreps and their orientation were checked by PCR, using generic and specific primers. Sf9 insect cells were cultured in InsectXpress medium (Cambrex) at 27° C. and transfected with the corresponding bacmid, using GeneShuttle 40 (Q-BIOgen). Viruses were recovered in the supernatant 72 h after transfection. Viruses were amplified by infecting insect cells (Sf9 or High Five cells; invitrogen) in 50 ml InsectXpress medium in a 150 cm^2 cell culture flask with 500 μl of the supernatant from transfected Sf9 cells. Following the second round of amplification, infected cells were recovered by rapid SDS lysis, boiled for 5 min at 100° C., sonicated briefly and centrifuged for 20 min at 14,000 g.
USP7 was diluted in USP buffer (50 mM Tris HCl; 0.5 mM EDTA (Ethylenediaminetetraacetic acid); 5 mM DTT; 0.01% Triton X-100; Bovine Serum Albumin 0.05 mg·ml^−1 pH7.6). Compounds stocks (10 mM) were stored at −20° C. in DMSO.
Reactions were performed as duplicates in Black 384 well plates (small volumes microplates; Greiner; 10 μl final reaction volume). […] The concentrations of the enzyme (USP7) in specificity assays was 100 pM. The concentrations were determined in order to perform specificity assays under initial velocities at fixed substrate concentration. Compounds were pre-incubated with enzymes for 30 minutes at 25° C. Reactions were initiated by addition of substrate to the plates containing the enzymes (+/− compounds) diluted in assay buffer. Reactions were incubated for 60 minutes at 37° C. Reactions were stopped by adding acetic acid (100 mM final). Readings were performed on a Pherastar Fluorescent Reader (BMG). λ Emission […].

USP8 [1] = biological target: T1, USP8 (Homo sapiens, UniProt P40818); assay: USP8 activity assay, Ub-AMC substrate; type: biochemical; set-up: His tag (pFastBac-HT vector); made in house; host or cells: Sf9 or High Five insect cells, baculovirus; settings: UbAMC substrate 300 nM, USP8 1.36 nM
T1 sequence (P40818 1-1118): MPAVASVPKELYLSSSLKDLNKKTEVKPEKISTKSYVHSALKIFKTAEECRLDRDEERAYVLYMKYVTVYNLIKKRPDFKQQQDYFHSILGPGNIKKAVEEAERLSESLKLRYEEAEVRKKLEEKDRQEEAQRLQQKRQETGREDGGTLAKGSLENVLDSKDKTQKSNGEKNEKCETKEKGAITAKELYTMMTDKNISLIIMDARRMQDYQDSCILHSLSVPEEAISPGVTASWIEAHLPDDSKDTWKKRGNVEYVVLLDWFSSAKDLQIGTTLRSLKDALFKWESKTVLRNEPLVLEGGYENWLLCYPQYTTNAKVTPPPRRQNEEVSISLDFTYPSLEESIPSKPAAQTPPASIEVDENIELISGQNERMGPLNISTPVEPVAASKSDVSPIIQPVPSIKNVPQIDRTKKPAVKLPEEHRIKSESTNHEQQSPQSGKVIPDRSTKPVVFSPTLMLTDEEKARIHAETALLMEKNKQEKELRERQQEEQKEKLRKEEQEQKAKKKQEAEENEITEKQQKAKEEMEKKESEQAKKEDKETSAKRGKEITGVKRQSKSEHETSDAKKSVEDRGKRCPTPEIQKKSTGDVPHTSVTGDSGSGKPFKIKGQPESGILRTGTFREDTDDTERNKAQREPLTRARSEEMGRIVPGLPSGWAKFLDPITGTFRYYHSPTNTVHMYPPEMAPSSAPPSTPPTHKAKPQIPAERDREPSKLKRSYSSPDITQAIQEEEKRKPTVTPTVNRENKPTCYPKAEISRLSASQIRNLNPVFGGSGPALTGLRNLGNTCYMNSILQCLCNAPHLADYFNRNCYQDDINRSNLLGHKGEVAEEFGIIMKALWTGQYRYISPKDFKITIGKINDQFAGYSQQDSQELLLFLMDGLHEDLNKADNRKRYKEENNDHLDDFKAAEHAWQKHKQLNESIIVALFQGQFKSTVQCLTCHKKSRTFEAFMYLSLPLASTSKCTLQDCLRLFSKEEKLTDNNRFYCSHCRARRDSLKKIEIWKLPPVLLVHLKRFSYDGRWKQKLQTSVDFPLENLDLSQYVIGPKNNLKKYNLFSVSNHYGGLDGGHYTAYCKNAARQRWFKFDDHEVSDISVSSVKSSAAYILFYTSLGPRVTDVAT
Method: USP8 was diluted in USP buffer (50 mM Tris HCl; 0.5 mM EDTA; 5 mM DTT; 0.01% Triton X-100; Bovine Serum Albumin 0.05 mg·ml^−1 pH8.8). Compounds stocks (100 mM) were stored at −20° C. in DMSO.
Reactions were performed as duplicates in Black 384 well plates (small volume microplates; Greiner; 10 μl final reaction volume). The substrate concentration for USP8 was 300 nM Ub-AMC (Boston Biochem). […] The concentrations were determined in order to perform specificity assays under initial velocities at fixed substrate concentration. Compounds were pre-incubated with enzymes for 30 minutes at 25° C. Reactions were initiated by addition of substrate to the plates containing the enzymes (+/− compounds) diluted in assay buffer. Reactions were incubated for 60 minutes at 37° C. Reactions were stopped by adding acetic acid (100 mM final). Readings were performed on a Pherastar Fluorescent Reader (BMG). λ Emission 380 nm: λ Excitation=460 nm.

USP8 [2] = biological target: T1, USP8; assay: GST-Ub52-Flag HTRF deubiquitinating enzyme assay, USP8
Text: The cDNA encoding USP8 was obtained by PCR amplification from placenta mRNA. USP8 cDNA was subcloned by PCR into a baculovirus expression vector (pFastBac-HT; Invitrogen). A cDNA encoding a mutated USP8 was generated by mutagenic PCR. […] The sequences were ascertained by sequencing of the entire open reading frame. Bacmids encoding USP8 were generated following DH10bac transposition. The corresponding bacmids were transfected into insect cells (Sf9). Viruses were recovered from culture supernatant and amplified twice. Insect cells (Sf9 or High Five; Invitrogen) were infected for 72 hours. […] Proteins were affinity purified on metal affinity resins (Talon Metal affinity resin; BD Biosciences). Bound materials were extensively washed in wash buffer (50 mM Sodium Phosphate pH 7.0; 300 mM NaCl; 10 mM imidazole; 0.5% Triton X-100; 10% glycerol) and eluted from the resin in 250 mM imidazole-containing wash buffer. Proteins were dialyzed in dialysis buffer (Tris HCl pH 7.6 20 mM; NaCl 200 mM; DTT 1 mM; EDTA 1 mM; 10% Glycerol).
A cDNA encoding the fusion protein between ubiquitin and the ribosomal protein L40 (ub52 or uba52 or ubiquitin-L40) was amplified from human RNA using a proprietary human placenta library. The cDNA was subcloned into a bacterial expression vector (pGEX-2T, GE Healthcare), including an additional flag tag at the carboxyl end of the encoded protein.
For production and purification of recombinant proteins, the plasmid pGEX-2T-Ub52-flag was transformed into E. coli BL21 (Stratagene), grown in LB medium supplemented with 100 mg/ml ampicillin (LB ampi) at 37° C. overnight and then diluted 1/100 in LB ampi. The cells were incubated at 37° C. until an A600=0.6-0.8 was reached. After induction with 0.1 mM isopropyl-β-D-thiogalactopyranoside (IPTG), the culture was incubated at 30° C. for 180 min.
Cells were harvested by centrifugation for 15 min at 7000×g at 4° C. Bacterial pellets were lysed in NETN (Tris HCl pH 8.0; EDTA 1 mM; NP40 0.5%; protease inhibitor cocktail, PMSF 1 mM) and briefly sonicated. Insoluble material was removed by centrifugation 30 min at 14000×g. […] Briefly, soluble fraction was incubated on Glutathione beads pre-equilibrated in NETN buffer+0.5% Milk for 120 min at 4° C. Flow Through was recovered. Beads were extensively washed: the last wash was performed in Tris HCl pH 7.6 20 mM; NaCl 100 mM; MgCl2 12 mM. Elutions were performed using 20 mM Reduced Glutathione in 50 mM Tris HCl pH 8.0, NaCl 120 mM. […] Elutions were dialysed over night at 4° C. in Tris HCl pH 7.6 20 mM; NaCl 50 mM; DTT 0.5 mM.
The use of GST-Ub52-Flag is based on the time-resolved measurement of fluorescence emitted by transfer in homogenous medium.
The assay is carried out on multiwell assay plates. The plates are analyzed on a PHERAstar fluorimeter (BMG) after an overnight incubation at 4° C.
The enzyme reaction is carried out by mixing GST-Ub52-flag solution with 5 μl of USP7 solution (200 pM final) or 5 μl of USP8 (400 pM final). This mixture is incubated for one hour at room temperature on a multiwell assay plate. […] The plate is read after an overnight incubation at 4° C. on a PHERAstar fluorimeter (BMG).
The decrease in the signal correlates with the increase in enzyme activity i.e. the cleavage of GST-Ub52-Flag substrate.
Data (mean values+/−standard deviation) were analyzed as % of control (no compound) and plotted as percentage versus the Log of the compound concentration using GraphPad (Prism).

Sequence of USP7 (Q93009 whole entry): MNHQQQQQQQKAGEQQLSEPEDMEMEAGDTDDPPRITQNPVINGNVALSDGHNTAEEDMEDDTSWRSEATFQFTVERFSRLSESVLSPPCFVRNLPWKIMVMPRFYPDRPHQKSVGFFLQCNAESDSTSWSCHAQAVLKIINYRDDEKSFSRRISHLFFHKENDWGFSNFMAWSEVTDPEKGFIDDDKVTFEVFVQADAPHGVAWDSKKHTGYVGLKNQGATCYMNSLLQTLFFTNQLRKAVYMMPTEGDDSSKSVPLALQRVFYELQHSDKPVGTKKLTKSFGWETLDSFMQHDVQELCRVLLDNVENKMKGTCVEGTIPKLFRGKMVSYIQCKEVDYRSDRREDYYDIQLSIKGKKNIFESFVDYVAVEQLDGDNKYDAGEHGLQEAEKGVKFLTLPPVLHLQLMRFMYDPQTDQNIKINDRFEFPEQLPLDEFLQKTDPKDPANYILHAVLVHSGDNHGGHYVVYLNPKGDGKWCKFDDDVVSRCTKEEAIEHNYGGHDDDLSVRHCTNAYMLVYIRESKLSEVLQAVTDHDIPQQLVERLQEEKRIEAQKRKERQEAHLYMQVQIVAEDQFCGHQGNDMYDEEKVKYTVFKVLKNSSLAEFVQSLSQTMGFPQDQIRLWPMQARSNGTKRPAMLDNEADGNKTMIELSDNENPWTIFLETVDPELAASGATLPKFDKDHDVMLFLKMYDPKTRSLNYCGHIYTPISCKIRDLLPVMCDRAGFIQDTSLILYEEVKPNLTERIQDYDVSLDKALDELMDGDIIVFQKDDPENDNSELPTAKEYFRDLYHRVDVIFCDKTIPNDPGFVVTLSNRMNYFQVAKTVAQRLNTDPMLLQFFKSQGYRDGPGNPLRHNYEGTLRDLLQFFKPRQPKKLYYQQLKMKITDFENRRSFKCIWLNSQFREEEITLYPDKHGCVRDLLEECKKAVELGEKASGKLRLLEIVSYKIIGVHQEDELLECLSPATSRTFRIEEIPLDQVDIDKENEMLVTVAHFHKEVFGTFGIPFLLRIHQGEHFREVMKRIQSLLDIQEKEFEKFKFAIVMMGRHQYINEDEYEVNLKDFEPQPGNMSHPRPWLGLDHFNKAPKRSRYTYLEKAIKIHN

| Structure (SMILES) | IC50 (USP7) [µM] | IC50 (USP8 [1]) [µM] | IC50 (USP8 [2]) [µM] |
| --- | --- | --- | --- |
| O=C(CCC1CCCC1)N1CCC(O)(Cn2cnc3ccccc3c2=O)CC1 [Example 3, 3-{[1-(3-cyclopentylpropanoyl)-4-hydroxypiperidin-4-yl]methyl}-3,4-dihydroquinazolin-4-one] | 100 | > 200 | > 200 |
| CC(C)C(=O)N1CCC(O)(Cn2cnc3ccccc3c2=O)CC1 [Example 6, 3-{[4-hydroxy-1-(2-methylpropanoyl)piperidin-4-yl]methyl}-3,4-dihydroquinazolin-4-one] | 156 | > 200 | > 200 |
| COc1cc2ncn(CC3(O)CCN(C(=O)C(C)C)CC3)c(=O)c2cc1OC [Example 7, 3-{[4-hydroxy-1-(2-methylpropanoyl)piperidin-4-yl]methyl}-6,7-dimethoxy-3,4-dihydroquinazolin-4-one] | 90 | > 200 | > 200 |
| CCC(CC)C(=O)N1CCC(O)(Cn2cnc3cc(Cl)ccc3c2=O)CC1 [Example 9, 7-chloro-3-{[1-(2-ethylbutanoyl)-4-hydroxypiperidin-4-yl]methyl}-3,4-dihydroquinazolin-4-one] | 155 | > 200 | > 200 |
| COc1ccccc1CCC(=O)N1CCC(O)(Cn2cnc3ccccc3c2=O)CC1 [Example 10, 3-({4-hydroxy-1-[3-(2-methoxyphenyl)propanoyl]piperidin-4-yl}methyl)-3,4-dihydroquinazolin-4-one] | 261 | > 200 | > 200 |
| CC(Cc1ccccc1)C(=O)N1CCC(O)(Cn2cnc3ccccc3c2=O)CC1 (stereo not drawn) [Example 13, 3-{[1-(2-benzylpropanoyl)-4-hydroxypiperidin-4-yl]methyl}-3,4-dihydroquinazolin-4-one] |  | > 200 | > 200 |

Next, values leading:

| IC50 (USP7) [µM] | IC50 (USP8 [1]) [µM] | IC50 (USP8 [2]) [µM] | Structure (SMILES) |
| --- | --- | --- | --- |
| 69 | > 200 | > 200 | O=C(CCc1ccccc1)N1CCC(O)(Cn2cnc3ccccc3c2=O)CC1 [Example 1, 3-{[4-hydroxy-1-(3-phenylpropanoyl)piperidin-4-yl]methyl}-3,4-dihydroquinazolin-4-one] |
| 33 |  |  | O=C(CCc1ccccc1)N1CCC(O)(Cn2cnc3cc(Cl)ccc3c2=O)CC1 [Example 2, 7-chloro-3-{[4-hydroxy-1-(3-phenylpropanoyl)piperidin-4-yl]methyl}-3,4-dihydroquinazolin-4-one] |
| 54 | > 200 | > 200 | O=C(CCC1CCCC1)N1CCC(O)(Cn2cnc3cc(Cl)ccc3c2=O)CC1 [Example 4, 7-chloro-3-{[1-(3-cyclopentylpropanoyl)-4-hydroxypiperidin-4-yl]methyl}-3,4-dihydroquinazolin-4-one] |
| 37 | > 200 | > 200 | CC(Cc1cccs1)C(=O)N1CCC(O)(Cn2cnc3ccccc3c2=O)CC1 (stereo not drawn) [Example 5, 3-({4-hydroxy-1-[2-methyl-3-(thiophen-2-yl)propanoyl]piperidin-4-yl}methyl)-3,4-dihydroquinazolin-4-one] |
| 40 | > 200 | > 200 | CC(Cc1cccs1)C(=O)N1CCC(O)(Cn2cnc3cc(Cl)ccc3c2=O)CC1 (stereo not drawn) [Example 11, 7-chloro-3-({4-hydroxy-1-[2-methyl-3-(thiophen-2-yl)propanoyl]piperidin-4-yl}methyl)-3,4-dihydroquinazolin-4-one] |
| 70 | > 200 | > 200 | O=C(CCc1cccs1)N1CCC(O)(Cn2cnc3ccccc3c2=O)CC1 [Example 12, 3-({4-hydroxy-1-[3-(thiophen-2-yl)propanoyl]piperidin-4-yl}methyl)-3,4-dihydroquinazolin-4-one] |
| 24 | > 200 | > 200 | CC(Cc1ccccc1)C(=O)N1CCC(O)(Cn2cnc3cc(Cl)ccc3c2=O)CC1 (stereo not drawn) [Example 14, 3-{[1-(2-benzylpropanoyl)-4-hydroxypiperidin-4-yl]methyl}-7-chloro-3,4-dihydroquinazolin-4-one] |

Reference: US9546150B2, “Substituted quinazolin-4-ones for inhibiting ubiquitin specific protease 7” (HYBRIGENICS SA, priority 2011, dated 2017)
